Results reported in PMC3663048 (Journal of medicinal chemistry, 2011).
Numbering of substitutions follows the chain as printed.

Tests used:
C22V Nek2 = biological target: T1, C22V Nek2 (Homo sapiens, UniProt P51955, C22V); assay: In vitro kinase assay with C22V Nek2; type: biochemical; conditions: C22V mutant
T1 sequence (P51955 1-445 C22V): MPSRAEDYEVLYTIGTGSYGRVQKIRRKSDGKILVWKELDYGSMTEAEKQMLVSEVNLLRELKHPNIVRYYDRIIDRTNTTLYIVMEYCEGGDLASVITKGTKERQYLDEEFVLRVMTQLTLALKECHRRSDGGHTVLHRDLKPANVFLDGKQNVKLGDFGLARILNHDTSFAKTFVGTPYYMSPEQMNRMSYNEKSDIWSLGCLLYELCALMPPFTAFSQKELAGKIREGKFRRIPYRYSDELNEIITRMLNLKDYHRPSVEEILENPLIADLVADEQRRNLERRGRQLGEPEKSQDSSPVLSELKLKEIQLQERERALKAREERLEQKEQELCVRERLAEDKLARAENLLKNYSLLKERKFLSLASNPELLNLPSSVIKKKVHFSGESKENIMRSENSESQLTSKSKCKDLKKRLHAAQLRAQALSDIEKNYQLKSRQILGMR

Nek2 = biological target: T2, Nek2 (Homo sapiens, UniProt P51955); assay: In vitro kinase assay with WT Nek2; conditions: for Percent inhibition of Nek2 kinase activity: 5 μM, 30 min pre-incubation; for Potency against WT Nek2 (dose-response): WT Nek2, in vitro kinase assay; for inhibition at 5 µM: read-out: Percent inhibition of Nek2 kinase activity
T2 sequence (P51955 1-445): T1 sequence (P51955 1-445 C22V) with V22C

[1] = biological target: T3, WT Nek2 kinase domain (aa 1-271) (Homo sapiens, UniProt P51955); assay: Mass spectrometry-based covalent binding assay, WT Nek2 kinase domain; conditions: ten-fold molar excess of compound, physiological pH
T3 sequence (P51955 1-271): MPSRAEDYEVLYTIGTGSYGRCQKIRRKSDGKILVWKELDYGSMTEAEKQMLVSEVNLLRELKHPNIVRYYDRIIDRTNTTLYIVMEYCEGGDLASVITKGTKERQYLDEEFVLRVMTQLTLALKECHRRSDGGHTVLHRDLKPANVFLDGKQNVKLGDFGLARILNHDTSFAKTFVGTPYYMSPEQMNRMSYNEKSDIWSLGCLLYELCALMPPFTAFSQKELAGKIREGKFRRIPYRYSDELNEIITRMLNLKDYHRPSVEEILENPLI

[2] = test system: monastrol-arrested A549 cells; assay: Mitotic exit of monastrol-arrested A549 cells; type: cell-based, human; conditions: 45 min; for Phospho-Ser10 histone H3 staining (mitotic marker): 5 μM
endogenous Nek2 = biological target: T4, endogenous Nek2 (Homo sapiens, UniProt P51955); assay: Immunoprecipitation kinase assay of endogenous Nek2 from treated A549 cells; type: cell-based; conditions: A549, read-out: Inhibition of cellular Nek2
T4 sequence (P51955 1-445): T1 sequence (P51955 1-445 C22V) with V22C

For `C#CC(=O)Nc1ccc2c(c1)/C(=C/c1ccc[nH]1)C(=O)N2` [compound 8, (Z)-N-(3-((1H-Pyrrol-2-yl)methylene)-2-oxoindolin-5-yl)propiolamide], the “Potency against C22V Nek2 compared to WT” value (C22V Nek2) was “significantly less potent”, the “Percent inhibition of Nek2 kinase activity” value (Nek2) was “nearly complete inhibition” and the “Potency against WT Nek2 (dose-response)” value (Nek2) was “submicromolar”. The inhibition at 5 µM (Nek2) was greater than 80% and the “Alkylation of WT Nek2 kinase domain (ESI-MS)” value (“Alkylation” for short) [1] was “alkylated WT Nek2 at a single site”.
With `O=C1NC(=NCc2cccs2)S/C1=C\c1ccc2ncccc2c1` [compound 19, reference compound] the “Phospho-Ser10 histone H3 staining (mitotic marker)” value [2] was “devoid of this mitotic marker”.
`CCc1nc(C)c(/C=C2\C(=O)Nc3ccc(C(=O)CCl)cc32)[nH]1` [compound 11, (Z)-5-(2-Chloroacetyl)-3-((2-ethyl-4-methyl-1H-imidazol-5-yl)methylene)indolin-2-one] was tested, and the “Alkylation” value [1] was “reacted stoichiometrically”.
`C#CC(=O)Nc1ccc2c(c1)/C(=C/c1[nH]cnc1C)C(=O)N2` [compound 15, (Z)-N-(3-((4-Methyl-1H-imidazol-5-yl)methylene)-2-oxoindolin-5-yl)propiolamide] was tested, and the “Phospho-Ser10 histone H3 staining (mitotic marker)” value [2] was “devoid of this mitotic marker” and the “% mitotic exit (5 μM)” value ([2]; immunofluorescence) was 80%.
For `O=C1Nc2ccc(C(=O)CCl)cc2/C1=C/c1ccc[nH]1` [compound 2, (Z)-3-((1H-Pyrrol-2-yl)methylene)-5-(2-chloroacetyl)indolin-2-one], the “Potency against C22V Nek2 compared to WT” value (C22V Nek2) was “significantly less potent”, the “Potency against WT Nek2 (dose-response)” value (Nek2) was “submicromolar” and the inhibition at 5 µM (Nek2) was greater than 80%. The “Alkylation” value [1] was “alkylated WT Nek2 at a single site”.
`CC#CC(=O)Nc1ccc2c(c1)/C(=C/c1[nH]c(CC)nc1C)C(=O)N2` [compound 18, (Z)-N-(3-((2-Ethyl-4-methyl-1H-imidazol-5-yl)methylene)-2-oxoindolin-5-yl)but-2-ynamide] gave an inhibition at 5 µM (endogenous Nek2) of 10 to 25% and an IC50 (Nek2) of roughly 20 µM.
For `C=CC(=O)Nc1ccc2c(c1)/C(=C/c1ccc[nH]1)C(=O)N2` [compound 7, (Z)-N-(3-((1H-Pyrrol-2-yl)methylene)-2-oxoindolin-5-yl)acrylamide], the “Percent inhibition of Nek2 kinase activity” value (Nek2) was “ineffective”.
